Common to all, as to type: cell-based
One experiment deals with PC-9 cells. Kind of experiment: 5-Day CellTiter Glo (CTG) cell proliferation assay, PC-9. Particulars: Homo sapiens; PC-9 cells (d746-750 EGFR), 5-day CTG proliferation, 120 hours; read-out: PC-9 IC50. How it is done: (§1) 5-Day CellTiter Glo (CTG) Cell Proliferation Assays (PC9, H1975, H827)
(§2) Cell proliferation assays were carried out in NSCLC cells with EGFR activation mutations. Both PC-9 cells and HCC827 cells (purchased from DSMZ) carry a Glu746-Ala750 deletion (d746-750) mutation in exon 19 of the EGFR gene and NCI-H1975 cells carry both L858R activation mutation and T790M gatekeeper mutation in the EGFR gene. One thousand PC-9, NCI-H1975 or HCC827 cells/100 μL per well were seeded in 96-well black plate with transparent bottom and then treated with indicated compounds in a 9-dose dilution series dispensed using TECAN d300e liquid dispenser. Cells were incubated with compounds for 120 hours at 37° C. and 5% CO2. Cell proliferation was measured using CellTiter-Glo 2.0 luciferase-based ATP detection assay (Promega, Madison, WI) at […] per well following the manufacturer's protocol. Plates were then read on a TECAN Sparks multimode microplate reader. Data was analyzed using GraphPad Prism 9 (GraphPad Software, San Diego, CA) to obtain IC50 values.

A further experiment deals with NCI-H1975 cells. Put plainly: 5-Day CellTiter Glo (CTG) cell proliferation assay, NCI-H1975. Particulars: Homo sapiens; NCI-H1975 cells (L858R/T790M EGFR), 5-day CTG proliferation, 120 hours; read-out: H1975 IC50. How it is done:
as §1, §2
A general note: In ATP-based viability assays light output follows the ATP content of the culture.

The next experiment deals with HCC827 cells. Put plainly: 5-Day CellTiter Glo (CTG) cell proliferation assay, HCC827. As to conditions: Homo sapiens; HCC827 cells (d746-750 EGFR), 5-day CTG proliferation, 120 hours; read-out: HCC827 IC50. On the procedure: as §1, §2

A word on the IC50: it is the point on the concentration scale where inhibition reaches its midpoint. As to `CCOc1nn([C@@H](C)CO)c2c1/C=C/c1n[nH]c3c(O)nc(cc13)-c1c(C)nn(C)c1O[C@@H](C)CN(C)C2` [Ex. 99, (10S,17E)-16-ethoxy-14-[(2S)-1-hydroxypropan-2-yl]-6,8,10,12-tetramethyl-2,10,11,12,13,14-hexahydro-8H-5,3-(azenometheno)tripyrazolo[3,4-f:3′,4′-j:4″,3″-n][1,4]oxazacyclopentadecin-20-ol], the IC50 in the experiment with PC-9 cells is 0.351 µM; in the experiment with NCI-H1975 cells, 0.339 µM; in the experiment with HCC827 cells it was 0.0381 µM.

For the compound `COCc1nn(C)c2c1-c1cc3c(n[nH]c3c(C)n1)/C=C/c1cnn([C@@H](C)CO)c1CN(C1CC1)[C@H](C)CO2` [Ex. 140, (2S)-2-[(11R,17E)-12-cyclopropyl-6-(methoxymethyl)-8,11,20-trimethyl-2,8,10,11,12,13-hexahydro-14H-5,3-(azenometheno)tripyrazolo[3,4-f:3′,4′-j:4″,3″-n][1,4]oxazacyclopentadecin-14-yl]propan-1-ol], the concentration for half-maximal inhibition (IC50) in the experiment with PC-9 cells amounted to 0.0299 µM; in the experiment with HCC827 cells, 0.0061 µM.

Turning to `CCOc1nn(C)c2c1/C=C/c1n[nH]c3c(C)nc(cc13)-c1c(C)nn(C)c1O[C@@H](C)CN(C(C)=O)C2` [Ex. 131, 1-[(10S,17E)-16-ethoxy-6,8,10,14,20-pentamethyl-2,8,10,11,13,14-hexahydro-12H-5,3-(azenometheno)tripyrazolo[3,4-f:3′,4′-j:4″,3″-n][1,4]oxazacyclopentadecin-12-yl]ethan-1-one], the IC50 in the experiment with PC-9 cells stood at 0.353 µM; in the experiment on NCI-H1975 cells, 0.671 µM; with HCC827 cells, 0.0605 µM.

For the compound `CCOc1nn(C)c2c1/C=C/c1n[nH]c3c(C)nc(cc13)-c1c(C)nn(C)c1O[C@@H](C)CN(C(=O)C(C)C)C2` [Ex. 137, 1-[(10S,17E)-16-ethoxy-6,8,10,14,20-pentamethyl-2,8,10,11,13,14-hexahydro-12H-5,3-(azenometheno)tripyrazolo[3,4-f:3′,4′-j:4″,3″-n][1,4]oxazacyclopentadecin-12-yl]-2-methylpropan-1-one], the 50% inhibitory concentration (IC50) in the experiment with PC-9 cells turned out to be 0.113 µM; with HCC827 cells it was 0.0907 µM.

With `CCOc1nn(C)c2c1/C=C/c1n[nH]c3c(C)nc(cc13)-c1c(C)nn(C)c1O[C@@H](C)CN(C(=O)C1CC1)C2` [Ex. 136, cyclopropyl[(10S,17E)-16-ethoxy-6,8,10,14,20-pentamethyl-2,8,10,11,13,14-hexahydro-12H-5,3-(azenometheno)tripyrazolo[3,4-f:3′,4′-j:4″,3″-n][1,4]oxazacyclopentadecin-12-yl]methanone], the results for the IC50 with PC-9 cells, in the experiment on NCI-H1975 cells and with HCC827 cells were 0.067 µM, 0.266 µM and 0.0344 µM, respectively.

On to `CCOc1nn([C@@H](C)CO)c2c1/C=C/c1n[nH]c3c(C)nc(cc13)-c1c(C)nn(C)c1O[C@@H](C)CN(CC)C2` [Ex. 145, (2S)-2-[(10S,17E)-16-ethoxy-12-ethyl-6,8,10,20-tetramethyl-2,8,10,11,12,13-hexahydro-14H-5,3-(azenometheno)tripyrazolo[3,4-f:3′,4′-j:4″,3″-n][1,4]oxazacyclopentadecin-14-yl]propan-1-ol], for which the IC50 is 0.00037 µM in the experiment on PC-9 cells, 0.00058 µM in the experiment on NCI-H1975 cells and 0.00024 µM with HCC827 cells.

Turning to `CCOc1nn([C@@H](C)CO)c2c1/C=C/c1n[nH]c3c(C)nc(cc13)-c1c(C)nn(C)c1O[C@H](C)[C@@H](C)N(C)C2` [Ex. 132a, (2S)-2-[(11R,17E)-16-ethoxy-6,8,10,11,12,20-hexamethyl-2,8,10,11,12,13-hexahydro-14H-5,3-(azenometheno)tripyrazolo[3,4-f:3′,4′-j:4″,3″-n][1,4]oxazacyclopentadecin-14-yl]propan-1-ol], the IC50 with PC-9 cells was found to be 0.00112 µM; in the experiment with NCI-H1975 cells, 0.00077 µM; with HCC827 cells, 0.00041 µM.

`CCOc1nn([C@@H](C)CO)c2c1/C=C/c1n[nH]c3c(OC)nc(cc13)-c1c(C)nn(C)c1O[C@@H](C)CN(C)C2` [Ex. 96, (2S)-2-[(10S,17E)-16-ethoxy-20-methoxy-6,8,10,12-tetramethyl-2,8,10,11,12,13-hexahydro-14H-5,3-(azenometheno)tripyrazolo[3,4-f:3′,4′-j:4″,3″-n][1,4]oxazacyclopentadecin-14-yl]propan-1-ol]: the 50% inhibitory concentration (IC50) came out at 0.0255 µM in the experiment with PC-9 cells, 0.0272 µM in the experiment on NCI-H1975 cells and 0.00297 µM in the experiment on HCC827 cells.

Take `CCOc1nn([C@@H](C)CO)c2c1/C=C/c1n[nH]c3c(C)nc(cc13)-c1c(C)nn(C)c1O[C@@H](C)[C@@H](C)N(C)C2` [Ex. 132b, (2S)-2-[(11R,17E)-16-ethoxy-6,8,10,11,12,20-hexamethyl-2,8,10,11,12,13-hexahydro-14H-5,3-(azenometheno)tripyrazolo[3,4-f:3′,4′-j:4″,3″-n][1,4]oxazacyclopentadecin-14-yl]propan-1-ol]: the IC50 came out at 0.00054 µM in the experiment on PC-9 cells, 0.0007 µM in the experiment on NCI-H1975 cells and 0.00029 µM in the experiment on HCC827 cells.

For `Cc1nn(C)c2c1-c1cc3c(n[nH]c3c(C)n1)/C=C/c1cnn(CCO)c1CN(C1CC1)C[C@H](C)O2` [Ex. 133, 2-[(10S,17E)-12-cyclopropyl-6,8,10,20-tetramethyl-2,8,10,11,12,13-hexahydro-14H-5,3-(azenometheno)tripyrazolo[3,4-f:3′,4′-j:4″,3″-n][1,4]oxazacyclopentadecin-14-yl]ethan-1-ol], the figures for the IC50 in the experiment with PC-9 cells, in the experiment with NCI-H1975 cells and with HCC827 cells were 0.0343 µM, 0.0405 µM and 0.00887 µM, respectively.

As to `Cc1nn(C)c2c1-c1cc3c(n[nH]c3c(C)n1)/C=C/c1cnn([C@@H](C)CO)c1CN(C1CC1)C[C@H](C)O2` [Ex. 127, (2S)-2-[(10S,17E)-12-cyclopropyl-6,8,10,20-tetramethyl-2,8,10,11,12,13-hexahydro-14H-5,3-(azenometheno)tripyrazolo[3,4-f:3′,4′-j:4″,3″-n][1,4]oxazacyclopentadecin-14-yl]propan-1-ol], the concentration for half-maximal inhibition (IC50) in the experiment with PC-9 cells turned out to be 0.00126 µM; with NCI-H1975 cells, 0.00192 µM; in the experiment with HCC827 cells it was 0.00037 µM.

With `COCc1nn(C)c2c1-c1cc3c(n[nH]c3c(C)n1)/C=C/c1cnn([C@@H](C)CO)c1CN(C1CC1)C[C@H](C)O2` [Ex. 139, (2S)-2-[(10S,17E)-12-cyclopropyl-6-(methoxymethyl)-8,10,20-trimethyl-2,8,10,11,12,13-hexahydro-14H-5,3-(azenometheno)tripyrazolo[3,4-f:3′,4′-j:4″,3″-n][1,4]oxazacyclopentadecin-14-yl]propan-1-ol], the figures for the concentration for half-maximal inhibition (IC50) in the experiment on PC-9 cells, in the experiment with NCI-H1975 cells and with HCC827 cells were 0.00435 µM, 0.429 µM and 0.00082 µM, respectively.

On to `CCOc1nn(C)c2c1/C=C/c1n[nH]c3c(C)nc(cc13)-c1c(C)nn(C)c1O[C@@H](C)CN(C(=O)CC)C2` [Ex. 135, 1-[(10S,17E)-16-ethoxy-6,8,10,14,20-pentamethyl-2,8,10,11,13,14-hexahydro-12H-5,3-(azenometheno)tripyrazolo[3,4-f:3′,4′-j:4″,3″-n][1,4]oxazacyclopentadecin-12-yl]propan-1-one], for which the half-maximal inhibitory concentration (IC50) with PC-9 cells came out at 0.116 µM; in the experiment on HCC827 cells, 0.0738 µM.

`CCOc1nn([C@@H](C)CO)c2c1/C=C/c1n[nH]c3cnc(cc13)-c1c(COC)nn(C)c1O[C@@H](C)CN(C)C2` [Ex. 130, (2S)-2-[(10S,17E)-16-ethoxy-6-(methoxymethyl)-8,10,12-trimethyl-2,8,10,11,12,13-hexahydro-14H-5,3-(azenometheno)tripyrazolo[3,4-f:3′,4′-j:4″,3″-n][1,4]oxazacyclopentadecin-14-yl]propan-1-ol]: the half-inhibitory concentration (IC50) in the experiment with PC-9 cells stood at 0.00232 µM; with NCI-H1975 cells it was 0.176 µM; with HCC827 cells it was 0.00075 µM.

For `COCc1nn(C)c2c1-c1cc3c(n[nH]c3c(C)n1)/C=C/c1cnn(C)c1CN(C(=O)CCN(C)C)C[C@H](C)O2` [Ex. 143, 3-(dimethylamino)-1-[(10S,17E)-6-(methoxymethyl)-8,10,14,20-tetramethyl-2,8,10,11,13,14-hexahydro-12H-5,3-(azenometheno)tripyrazolo[3,4-f:3′,4′-j:4″,3″-n][1,4]oxazacyclopentadecin-12-yl]propan-1-one], the figures for the IC50 in the experiment with PC-9 cells, with NCI-H1975 cells and in the experiment with HCC827 cells were 0.0216 µM, 0.519 µM and 0.00909 µM, respectively.

For `Cc1nn(C)c2c1-c1cc3c(n[nH]c3c(C)n1)/C=C/c1cnn([C@@H](C)CO)c1CN(C1CC1)[C@H](C)CO2` [Ex. 128, (2S)-2-[(11R,17E)-12-cyclopropyl-6,8,11,20-tetramethyl-2,8,10,11,12,13-hexahydro-14H-5,3-(azenometheno)tripyrazolo[3,4-f:3′,4′-j:4″,3″-n][1,4]oxazacyclopentadecin-14-yl]propan-1-ol], the results for the concentration for half-maximal inhibition (IC50) with PC-9 cells, in the experiment with NCI-H1975 cells and in the experiment with HCC827 cells were 0.017 µM, 0.0568 µM and 0.00332 µM, respectively.

(Values after US20260317344A1, “EGFR INHIBITORS FOR TREATING DISEASE” (BLOSSOMHILL THERAPEUTICS, INC., priority 2023, published 2026).)
